ChEMBL document CHEMBL3046113, “Evaluation of fungicides and sterilants for potential application in the management of Fusarium wilt of banana” (Crop Prot, 2007)
Active and inactive are the calls of the source. The calls are words filed in the database; no cut-off is given here.

Key:
[1] = tested on: Fusarium odoratissimum; test: Growth inhibition of Fusarium oxysporum f. sp. cubense race 4 isolate CAV 086 at 1 ug/ml after 7 days; assay type: functional, organism-based
[2] = tested on: Fusarium odoratissimum; test: Antifungal activity against Fusarium oxysporum f. sp. cubense race 4 infected in Cavendish banana plant assessed as reduction in disease severity at 25 ug a.i./ml applied as soil drench treatment 1 week after planting measured after 7 weeks in greenhouse conditions; assay type: functional; parameters: scale not given: the % may be the effect or the level left
[3] = tested on: Fusarium oxysporum; test: Antifungal activity against Fusarium oxysporum infected tomato plant grown in hydroponic system applied as curative treatment relative to control; assay type: functional
[4] = tested on: Fusarium odoratissimum; test: Growth inhibition of Fusarium oxysporum f. sp. cubense race 4 isolate CAV 031 at 1 ug/ml after 7 days; assay type: functional, organism-based
[5] = tested on: Fusarium odoratissimum; test: Antifungal activity against Fusarium oxysporum f. sp. cubense race 4 incubated with 10^2 spore/ml for 5 min measured after 4 days; assay type: functional, organism-based
[6] = tested on: Fusarium odoratissimum; test: Growth inhibition of Fusarium oxysporum f. sp. cubense race 4 isolate CAV 031 at 10 ug/ml after 7 days; assay type: functional, organism-based
[7] = tested on: Fusarium odoratissimum; test: Growth inhibition of Fusarium oxysporum f. sp. cubense race 4 isolate CAV 031 at 50 ug/ml after 7 days; assay type: functional, organism-based
[8] = tested on: Fusarium odoratissimum; test: Antifungal activity against Fusarium oxysporum f. sp. cubense race 4 infected in Cavendish banana plant assessed as reduction in disease severity at 25 ug a.i./ml applied as root dip treatment for 10 min measured after 7 weeks in greenhouse conditions; assay type: functional; parameters: scale not given: the % may be the effect or the level left
[9] = tested on: Fusarium odoratissimum; test: Antifungal activity against Fusarium oxysporum f. sp. cubense race 4 infected in Cavendish banana plant assessed as reduction in disease severity at 25 ug a.i./ml applied as soil drench treatment immediately after planting measured after 7 weeks in greenhouse conditions; assay type: functional; parameters: scale not given: the % may be the effect or the level left
[10] = tested on: Fusarium odoratissimum; test: Growth inhibition of Fusarium oxysporum f. sp. cubense race 4 isolate CAV 086 at 50 ug/ml after 7 days; assay type: functional, organism-based
[11] = tested on: Fusarium odoratissimum; test: Growth inhibition of Fusarium oxysporum f. sp. cubense race 4 isolate CAV 031 at 100 ug/ml after 7 days; assay type: functional, organism-based
[12] = tested on: Fusarium oxysporum; test: Antifungal activity against Fusarium oxysporum infected tomato plant grown in hydroponic system applied as preventive treatment relative to control; assay type: functional
[13] = tested on: Fusarium odoratissimum; test: Growth inhibition of Fusarium oxysporum f. sp. cubense race 4 isolate CAV 086 at 10 ug/ml after 7 days; assay type: functional, organism-based
[14] = tested on: Fusarium odoratissimum; test: Antifungal activity against Fusarium oxysporum f. sp. cubense race 4 at 10 times recommended dose incubated with 10^2 spore/ml for 5 min measured after 4 days; assay type: functional, organism-based
[15] = tested on: Fusarium odoratissimum; test: Growth inhibition of Fusarium oxysporum f. sp. cubense race 4 isolate CAV 086 at 5 ug/ml after 7 days; assay type: functional, organism-based
[16] = tested on: Fusarium odoratissimum; test: Antifungal activity against Fusarium oxysporum f. sp. cubense race 4 incubated with 10^2 spore/ml for 5 to 30 min measured after 4 days; assay type: functional, organism-based
[17] = tested on: Fusarium odoratissimum; test: Antifungal activity against Fusarium oxysporum f. sp. cubense race 4 at 0.01 times recommended dose incubated with 10^2 spore/ml for 5 min measured after 4 days; assay type: functional, organism-based

| SMILES | growth inhibition (GI) [1] | Activity [2] [%] | Activity [3] [%] | growth inhibition (GI) [4] | Activity [5] | growth inhibition (GI) [6] | growth inhibition (GI) [7] | Activity [8] [%] | Activity [9] [%] | growth inhibition (GI) [10] | growth inhibition (GI) [11] | Activity [12] [%] | growth inhibition (GI) [13] | Activity [14] | growth inhibition (GI) [15] | Activity [16] | Activity [17] |
| --- | --- | --- | --- | --- | --- | --- | --- | --- | --- | --- | --- | --- | --- | --- | --- | --- | --- |
| CCCN(CCOc1c(Cl)cc(Cl)cc1Cl)C(=O)n1ccnc1 [PROCHLORAZ] | Active | 50 | 34.4 | Active | Dose-dependent effect | Active | Active | 77.8 | 38.9 | Active | Active | 69.9 | Active | Active | – | – | – |
| CO/N=C(/C(=O)OC)c1ccccc1COc1ccccc1C | – | – | – | inactive | – | inactive | inactive | – | – | – | inactive | – | – | – | – | – | – |
| CO/C=C(/C(=O)OC)c1ccccc1Oc1cc(Oc2ccccc2C#N)ncn1 | – | – | – | inactive | – | inactive | inactive | – | – | – | inactive | – | – | – | – | – | – |
| CCCCNC(=O)n1c(NC(=O)OC)nc2ccccc21 [BENOMYL] | – | 72.2 | – | – | – | Active | Active | 66.7 | 22.2 | – | Active | – | – | – | Active | – | – |
| OCl | – | – | – | – | Dose-dependent effect | – | – | – | – | – | – | – | – | Active | – | Active | inactive |
| CCCC1COC(Cn2cncn2)(c2ccc(Cl)cc2Cl)O1 (stereo not drawn) [PROPICONAZOLE] | – | 52.8 | – | – | – | – | – | 75 | 44.4 | – | Active | – | – | – | Active | – | – |
